Measurements: patent US6737383B1, “Herbicidal oxadiazolidines” (priority 1999, dated 2004)

Assays:
pigweed = experiment: Test B pre/postemergence pigweed; assay type: in vivo, Amaranthus retroflexus
Outline: (§1)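 Response is a visual 0-to-10 score relative to untreated plants, where 0 means no effect and 10 means complete control, taken twelve to sixteen days after application. Treatments went onto soil at planting and onto foliage of 1- to 4-leaf plants, using a surfactant-containing non-phytotoxic solvent.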

rape = experiment: Test B pre/postemergence rape; assay type: in vivo, Brassica napus
Outline: as §1

wheat = experiment: Test B pre/postemergence wheat; assay type: in vivo, Triticum aestivum
Outline: as §1

cocklebur = experiment: Test B pre/postemergence cocklebur; assay type: in vivo, Xanthium strumarium
Outline: as §1

surinam grass = experiment: Test B pre/postemergence surinam grass; assay type: in vivo, Brachiaria decumbens
Outline: as §1

wild oat = experiment: Test B pre/postemergence wild oat; assay type: in vivo, Avena fatua
Outline: as §1

giant foxtail = experiment: Test B pre/postemergence giant foxtail; assay type: in vivo, Setaria faberii
Outline: as §1

blackgrass = experiment: Test B pre/postemergence blackgrass; assay type: in vivo, Alopecurus myosuroides
Outline: as §1

soybean = experiment: Test B pre/postemergence soybean; assay type: in vivo, Glycine max
Outline: as §1

morningglory = experiment: Test B pre/postemergence morningglory; assay type: in vivo, Ipomoea hederacea
Outline: as §1

velvetleaf = experiment: Test B pre/postemergence velvetleaf; assay type: in vivo, Abutilon theophrasti
Outline: as §1

sugar beet = experiment: Test B pre/postemergence sugar beet; assay type: in vivo, Beta vulgaris
Outline: as §1

corn = experiment: Test B pre/postemergence corn; assay type: in vivo, Zea mays
Outline: as §1

bedstraw = experiment: Test B pre/postemergence bedstraw; assay type: in vivo, Galium aparine
Outline: as §1

[1] = Postemergence, Rate 125 g/ha, scale of 0 to 10 where 0 is no effect and 10 is complete control
[2] = Preemergence, Rate 62 g/ha, scale of 0 to 10 where 0 is no effect and 10 is complete control
[3] = Preemergence, Rate 125 g/ha, 0 is no effect, 10 is complete control
[4] = Preemergence, Rate 250 g/ha, scale 0 to 10, 0 is no effect, 10 is complete control
[5] = Preemergence, Rate 500 g/ha, scale 0 to 10 (0 no effect, 10 complete control)
[6] = Rate 62 g/ha, Postemergence, scale of 0 to 10 where 0 is no effect and 10 is complete control
[7] = Rate 250 g/ha, Postemergence, scale 0 to 10, 0 is no effect, 10 is complete control
[8] = Rate 500 g/ha, Postemergence, scale 0 to 10

CC1CCCCC1n1c(=O)on(C(=O)N(c2ccc(F)cc2F)C(C)C)c1=O (stereo not drawn) [Compound 172]
0: Redroot pigweed plant response rating (pigweed; [1]) | Redroot pigweed plant response rating (pigweed; [2]) | Redroot pigweed plant response rating (pigweed; [6]) | Rape plant response rating (rape; [1]) | Rape plant response rating (rape; [2]) | Rape plant response rating (0 to 10 scale) (rape; [3]) | Rape plant response rating (rape; [4]) | Rape plant response rating (rape; [6]) | Plant response rating, Rape (rape; [7]) | Rape plant response rating (rape; [8]) | Wheat plant response rating (wheat; [2]) | Wheat plant response rating (0 to 10 scale) (wheat; [3]) | Wheat plant response rating (wheat; [4]) | Wheat plant response rating (wheat; [5]) | Plant response rating, Wheat (wheat; [7]) | Wheat plant response rating (wheat; [8]) | Cocklebur plant response rating (cocklebur; [1]) | Cocklebur plant response rating (cocklebur; [2]) | Cocklebur plant response rating (0 to 10 scale) (cocklebur; [3]) | Cocklebur plant response rating (cocklebur; [4]) | Cocklebur plant response rating (cocklebur; [5]) | Cocklebur plant response rating (cocklebur; [6]) | Plant response rating, Cocklebur (cocklebur; [7]) | B. signalgrass plant response rating (surinam grass; [1]) | B. signalgrass plant response rating (surinam grass; [6]) | Plant response rating, B. signalgrass (surinam grass; [7]) | B. signalgrass plant response rating (surinam grass; Rate 500 g/ha, Postemergence, scale 0 to 10, 0 no effect, 10 complete control) | Wild oats plant response rating (wild oat; [2]) | Wild oats plant response rating (0 to 10 scale) (wild oat; [3]) | Plant response rating, Wild oats (wild oat; [7]) | Wild oats plant response rating (wild oat; [8]) | Giant foxtail plant response rating (giant foxtail; [1]) | Giant foxtail plant response rating (giant foxtail; [6]) | Plant response rating, Giant foxtail (giant foxtail; [7]) | Giant foxtail plant response rating (giant foxtail; [8]) | Blackgrass plant response rating (blackgrass; [1]) | Blackgrass plant response rating (blackgrass; [2]) | Blackgrass plant response rating (0 to 10 scale) (blackgrass; [3]) | Blackgrass plant response rating (blackgrass; [6]) | Soybean plant response rating (soybean; [2]) | Soybean plant response rating (0 to 10 scale) (soybean; [3]) | Soybean plant response rating (soybean; [4]) | Soybean plant response rating (soybean; [5]) | Morningglory plant response rating (morningglory; [2]) | Morningglory plant response rating (0 to 10 scale) (morningglory; [3]) | Morningglory plant response rating (morningglory; [4]) | Morningglory plant response rating (morningglory; [5]) | Velvetleaf plant response rating (velvetleaf; [2]) | Velvetleaf plant response rating (0 to 10 scale) (velvetleaf; [3]) | Velvetleaf plant response rating (velvetleaf; [4]) | Plant response rating, Velvetleaf (velvetleaf; [7]) | Sugarbeets plant response rating (sugar beet; [1]) | Sugarbeets plant response rating (sugar beet; [2]) | Sugarbeets plant response rating (sugar beet; [6]) | Plant response rating, Sugarbeets (sugar beet; [7]) | Sugarbeets plant response rating (sugar beet; [8]) | Corn plant response rating (corn; [1]) | Corn plant response rating (corn; [2]) | Corn plant response rating (0 to 10 scale) (corn; [3]) | Corn plant response rating (corn; [4]) | Corn plant response rating (corn; [5]) | Corn plant response rating (corn; [6]) | Plant response rating, Corn (corn; [7]) | Corn plant response rating (corn; [8]) | Bedstraw plant response rating (bedstraw; [1]) | Bedstraw plant response rating (bedstraw; [2]) | Bedstraw plant response rating (0 to 10 scale) (bedstraw; [3]) | Bedstraw plant response rating (bedstraw; [6])
3: Plant response rating, Redroot pigweed (pigweed; [7]) | Wild oats plant response rating (wild oat; [4]) | Blackgrass plant response rating (blackgrass; [4]) | Blackgrass plant response rating (blackgrass; [5]) | Soybean plant response rating (soybean; [1]) | Plant response rating, Soybean (soybean; [7]) | Velvetleaf plant response rating (velvetleaf; [5]) | Bedstraw plant response rating (bedstraw; [4])
7: Redroot pigweed plant response rating (pigweed; [8])
2: Cocklebur plant response rating (cocklebur; [8]) | B. signalgrass plant response rating (surinam grass; [2]) | Soybean plant response rating (soybean; [6]) | Morningglory plant response rating (morningglory; [6]) | Velvetleaf plant response rating (velvetleaf; [8]) | Sugarbeets plant response rating (0 to 10 scale) (sugar beet; [3])
9: Giant foxtail plant response rating (0 to 10 scale) (giant foxtail; [3])
6: Redroot pigweed plant response rating (0 to 10 scale) (pigweed; [3]) | Wild oats plant response rating (wild oat; [5])
8: Redroot pigweed plant response rating (pigweed; [4]) | Redroot pigweed plant response rating (pigweed; [5]) | B. signalgrass plant response rating (surinam grass; [5]) | Giant foxtail plant response rating (giant foxtail; [2]) | Morningglory plant response rating (morningglory; [8]) | Plant response rating, Bedstraw (bedstraw; [7])
5: Rape plant response rating (rape; [5]) | B. signalgrass plant response rating (0 to 10 scale) (surinam grass; [3]) | B. signalgrass plant response rating (surinam grass; [4]) | Plant response rating, Blackgrass (blackgrass; [7]) | Blackgrass plant response rating (blackgrass; [8]) | Soybean plant response rating (soybean; [8]) | Morningglory plant response rating (morningglory; [1]) | Plant response rating, Morningglory (morningglory; [7]) | Sugarbeets plant response rating (sugar beet; [4]) | Sugarbeets plant response rating (sugar beet; [5]) | Bedstraw plant response rating (bedstraw; [5])
10: Giant foxtail plant response rating (giant foxtail; [4]) | Giant foxtail plant response rating (giant foxtail; [5])
